Test results from US6737383B1, “Herbicidal oxadiazolidines” (priority 1999, dated 2004).

Tests used:
[1] = tested on: soybean; test: Test B pre/postemergence soybean; type: in vivo, Glycine max
Outline: (§1)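 Herbicidal effect was estimated by eye on a ten-point control scale after plants spent twelve to sixteen days in a greenhouse following soil or foliar treatment. Foliar sprays targeted plants at one to four leaves; all doses were formulated in a non-phytotoxic solvent with surfactant.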

[2] = tested on: purple nutsedge; test: Test B pre/postemergence purple nutsedge; type: in vivo, Cyperus rotundus
Outline: as §1

[3] = tested on: wild oat; test: Test B pre/postemergence wild oat; type: in vivo, Avena fatua
Outline: as §1

[4] = tested on: pigweed; test: Test B pre/postemergence pigweed; type: in vivo, Amaranthus retroflexus
Outline: as §1

[5] = tested on: surinam grass; test: Test B pre/postemergence surinam grass; type: in vivo, Brachiaria decumbens
Outline: as §1

[6] = tested on: rice; test: Test B flood test rice; type: in vivo, Oryza sativa
Outline: (§2)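 Read-out is a visual response score from 0 (no effect) to 10 (complete control), assigned by comparison with untreated controls. Treatment was applied at the 2-leaf stage, and plants stayed in the greenhouse for twelve to sixteen days before scoring.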

[7] = tested on: crabgrass; test: Test B pre/postemergence crabgrass; type: in vivo, Digitaria sanguinalis
Outline: as §1

[8] = tested on: morningglory; test: Test B pre/postemergence morningglory; type: in vivo, Ipomoea hederacea
Outline: as §1

[9] = tested on: corn; test: Test B pre/postemergence corn; type: in vivo, Zea mays
Outline: as §1

[10] = tested on: bedstraw; test: Test B pre/postemergence bedstraw; type: in vivo, Galium aparine
Outline: as §1

[11] = tested on: giant foxtail; test: Test B pre/postemergence giant foxtail; type: in vivo, Setaria faberii
Outline: as §1

[12] = tested on: smallflower flatsedge; test: Test B flood test smallflower flatsedge; type: in vivo, Cyperus difformis
Outline: as §2

[13] = tested on: wheat; test: Test B pre/postemergence wheat; type: in vivo, Triticum aestivum
Outline: as §1

[14] = tested on: velvetleaf; test: Test B pre/postemergence velvetleaf; type: in vivo, Abutilon theophrasti
Outline: as §1

[15] = tested on: duck salad; test: Test B flood test duck salad; type: in vivo, Heteranthera limosa
Outline: as §2

[16] = tested on: blackgrass; test: Test B pre/postemergence blackgrass; type: in vivo, Alopecurus myosuroides
Outline: as §1

[17] = Postemergence, Rate 250 g/ha, scale 0 to 10
[18] = Postemergence, Rate 500 g/ha, scale of 0 to 10 where 0 is no effect and 10 is complete control
[19] = Preemergence, Rate 62 g/ha, scale of 0 to 10 where 0 is no effect and 10 is complete control
[20] = Preemergence, Rate 125 g/ha, scale of 0 to 10 where 0 is no effect and 10 is complete control
[21] = Preemergence, Rate 250 g/ha, scale 0 to 10, 0 is no effect, 10 is complete control
[22] = Preemergence, Rate 500 g/ha, scale 0 to 10, 0 is no effect, 10 is complete control
[23] = Rate 62 g/ha, Postemergence, scale 0 to 10 (0 no effect, 10 complete control)
[24] = Rate 125 g/ha, Postemergence, scale 0 to 10, 0 is no effect, 10 is complete control
[25] = Rate 62 g/ha, flood test species, Pre-emergence, visual evaluation after twelve to sixteen days
[26] = Rate 125 g/ha, under heading Pre-emergence, flood test species, visual evaluation after twelve to sixteen days
[27] = Rate 250 g/ha, Pre-emergence (flood test species), scale 0 to 10, 0 is no effect, 10 is complete control
[28] = Rate 500 g/ha, Pre-emergence, flood test species, scale 0 to 10 (0 no effect, 10 complete control)

Question: `CC(C)N(C(=O)n1oc(=O)n(C(C)Cl)c1=O)c1ccccc1` (stereo not drawn) [Compound 438] was tested. Which “Soybean plant response rating” value [1, 17] did it give?
Answer: 2

Question: What about the “Soybean plant response rating” value [1, 18] of the same molecule?
Answer: 6

Question: What about the “Plant response rating, Soybean” value [1, 19] of the same molecule?
Answer: 0

Question: What about the “Plant response rating, Soybean” value [1, 20] of the same molecule?
Answer: 0

Question: What about the “Soybean plant response rating” value [1, 21] of the same molecule?
Answer: 0

Question: What about the “Soybean plant response rating” value [1, 22] of the same molecule?
Answer: 2

Question: What about the “Soybean plant response rating” value [1, 23] of the same molecule?
Answer: 1

Question: And the “Soybean plant response rating” value [1, 24]?
Answer: 1

Question: What about the “Nutsedge plant response rating” value [2, 17] of the same molecule?
Answer: 0

Question: And the “Nutsedge plant response rating” value [2, 18]?
Answer: 0

Question: And the “Plant response rating, Nutsedge” value [2, 19]?
Answer: 0

Question: What about the “Plant response rating, Nutsedge” value [2, 20] of the same molecule?
Answer: 0

Question: And the “Nutsedge plant response rating” value [2, 21]?
Answer: 0

Question: And the “Nutsedge plant response rating” value [2, 23]?
Answer: 0

Question: And the “Nutsedge plant response rating” value [2, 24]?
Answer: 0

Question: What about the “Wild oats plant response rating” value [3, 17] of the same molecule?
Answer: 0

Question: And the “Wild oats plant response rating” value [3, 18]?
Answer: 0

Question: What about the “Plant response rating, Wild oats” value [3, 19] of the same molecule?
Answer: 0

Question: And the “Plant response rating, Wild oats” value [3, 20]?
Answer: 0

Question: And the “Wild oats plant response rating” value [3, 21]?
Answer: 1

Question: And the “Wild oats plant response rating” value [3, 22]?
Answer: 3

Question: What about the “Wild oats plant response rating” value [3, 23] of the same molecule?
Answer: 0

Question: And the “Wild oats plant response rating” value [3, 24]?
Answer: 0

Question: And the “Redroot pigweed plant response rating” value [4, 17]?
Answer: 0

Question: And the “Redroot pigweed plant response rating” value [4, 18]?
Answer: 0

Question: And the “Plant response rating, Redroot pigweed” value [4, 19]?
Answer: 2

Question: And the “Plant response rating, Redroot pigweed” value [4, 20]?
Answer: 2

Question: And the “Redroot pigweed plant response rating” value [4, 21]?
Answer: 5

Question: What about the “Redroot pigweed plant response rating” value [4, 22] of the same molecule?
Answer: 10

Question: And the “Redroot pigweed plant response rating” value [4, 23]?
Answer: 0

Question: What about the “Redroot pigweed plant response rating” value [4, 24] of the same molecule?
Answer: 0

Question: What about the “B. signalgrass plant response rating” value ([5]; Postemergence, Rate 250 g/ha, scale 0 to 10, 0 no effect, 10 complete control) of the same molecule?
Answer: 0

Question: And the “B. signalgrass plant response rating” value [5, 18]?
Answer: 0

Question: And the “Plant response rating, B. signalgrass” value [5, 19]?
Answer: 0

Question: What about the “Plant response rating, B. signalgrass” value [5, 20] of the same molecule?
Answer: 0

Question: And the “B. signalgrass plant response rating” value [5, 21]?
Answer: 0

Question: And the “B. signalgrass plant response rating” value [5, 22]?
Answer: 2

Question: What about the “B. signalgrass plant response rating” value [5, 23] of the same molecule?
Answer: 0

Question: And the “B. signalgrass plant response rating” value [5, 24]?
Answer: 0

Question: What about the “Plant response rating, Rice (0 to 10 scale, 0 is no effect, 10 is complete control)” value [6, 25] of the same molecule?
Answer: 0

Question: What about the “Rice plant response rating (0 to 10 scale, 0 is no effect, 10 is complete control)” value [6, 26] of the same molecule?
Answer: 0

Question: And the “Rice plant response rating” value [6, 27]?
Answer: 0

Question: And the “Rice plant response rating” value [6, 28]?
Answer: 0

Question: And the “Crabgrass plant response rating” value [7, 17]?
Answer: 8

Question: And the “Crabgrass plant response rating” value [7, 18]?
Answer: 9

Question: What about the “Plant response rating, Crabgrass” value [7, 19] of the same molecule?
Answer: 3

Question: And the “Plant response rating, Crabgrass” value [7, 20]?
Answer: 6

Question: And the “Crabgrass plant response rating” value [7, 21]?
Answer: 9

Question: And the “Crabgrass plant response rating” value [7, 22]?
Answer: 10

Question: What about the “Crabgrass plant response rating” value [7, 23] of the same molecule?
Answer: 2

Question: And the “Crabgrass plant response rating” value [7, 24]?
Answer: 4

Question: And the “Morningglory plant response rating” value [8, 17]?
Answer: 9

Question: What about the “Morningglory plant response rating” value [8, 18] of the same molecule?
Answer: 10

Question: And the “Plant response rating, Morningglory” value [8, 19]?
Answer: 0

Question: And the “Plant response rating, Morningglory” value [8, 20]?
Answer: 0

Question: And the “Morningglory plant response rating” value [8, 21]?
Answer: 0

Question: And the “Morningglory plant response rating” value [8, 22]?
Answer: 2

Question: And the “Morningglory plant response rating” value [8, 23]?
Answer: 4

Question: And the “Morningglory plant response rating” value [8, 24]?
Answer: 8

Question: And the “Corn plant response rating” value [9, 17]?
Answer: 0

Question: And the “Corn plant response rating” value [9, 18]?
Answer: 3

Question: What about the “Plant response rating, Corn” value [9, 19] of the same molecule?
Answer: 0

Question: And the “Plant response rating, Corn” value [9, 20]?
Answer: 0

Question: What about the “Corn plant response rating” value [9, 21] of the same molecule?
Answer: 0

Question: And the “Corn plant response rating” value [9, 22]?
Answer: 0

Question: And the “Corn plant response rating” value [9, 23]?
Answer: 0

Question: What about the “Corn plant response rating” value [9, 24] of the same molecule?
Answer: 0

Question: And the “Bedstraw plant response rating” value [10, 17]?
Answer: 0

Question: What about the “Bedstraw plant response rating” value [10, 21] of the same molecule?
Answer: 0

Question: And the “Bedstraw plant response rating” value [10, 23]?
Answer: 0

Question: What about the “Bedstraw plant response rating” value [10, 24] of the same molecule?
Answer: 0

Question: And the “Giant foxtail plant response rating” value [11, 17]?
Answer: 9

Question: And the “Giant foxtail plant response rating” value [11, 18]?
Answer: 9

Question: And the “Plant response rating, Giant foxtail” value [11, 19]?
Answer: 2

Question: What about the “Plant response rating, Giant foxtail” value [11, 20] of the same molecule?
Answer: 7

Question: And the “Giant foxtail plant response rating” value [11, 21]?
Answer: 10

Question: What about the “Giant foxtail plant response rating” value [11, 22] of the same molecule?
Answer: 10

Question: And the “Giant foxtail plant response rating” value [11, 23]?
Answer: 5

Question: What about the “Giant foxtail plant response rating” value [11, 24] of the same molecule?
Answer: 5

Question: What about the “Plant response rating, S. Flatsedge (0 to 10 scale, 0 is no effect, 10 is complete control)” value [12, 25] of the same molecule?
Answer: 0

Question: What about the “S. Flatsedge plant response rating (0 to 10 scale, 0 is no effect, 10 is complete control)” value [12, 26] of the same molecule?
Answer: 0

Question: What about the “S. Flatsedge plant response rating” value [12, 27] of the same molecule?
Answer: 0

Question: And the “S. Flatsedge plant response rating” value [12, 28]?
Answer: 0

Question: What about the “Wheat plant response rating” value [13, 17] of the same molecule?
Answer: 0

Question: What about the “Wheat plant response rating” value [13, 18] of the same molecule?
Answer: 0

Question: What about the “Plant response rating, Wheat” value [13, 19] of the same molecule?
Answer: 0

Question: And the “Plant response rating, Wheat” value [13, 20]?
Answer: 0

Question: What about the “Wheat plant response rating” value [13, 21] of the same molecule?
Answer: 0

Question: What about the “Wheat plant response rating” value [13, 22] of the same molecule?
Answer: 0

Question: And the “Wheat plant response rating” value [13, 23]?
Answer: 0

Question: And the “Wheat plant response rating” value [13, 24]?
Answer: 0

Question: What about the “Velvetleaf plant response rating” value [14, 17] of the same molecule?
Answer: 0

Question: And the “Velvetleaf plant response rating” value [14, 18]?
Answer: 0

Question: And the “Plant response rating, Velvetleaf” value [14, 19]?
Answer: 0

Question: And the “Plant response rating, Velvetleaf” value [14, 20]?
Answer: 0

Question: And the “Velvetleaf plant response rating” value [14, 21]?
Answer: 5

Question: What about the “Velvetleaf plant response rating” value [14, 22] of the same molecule?
Answer: 6

Question: What about the “Velvetleaf plant response rating” value [14, 23] of the same molecule?
Answer: 0

Question: And the “Velvetleaf plant response rating” value [14, 24]?
Answer: 0

Question: What about the “Plant response rating, Ducksalad (0 to 10 scale, 0 is no effect, 10 is complete control)” value [15, 25] of the same molecule?
Answer: 0

Question: And the “Ducksalad plant response rating (0 to 10 scale, 0 is no effect, 10 is complete control)” value [15, 26]?
Answer: 0

Question: And the “Ducksalad plant response rating” value [15, 27]?
Answer: 0

Question: What about the “Ducksalad plant response rating” value [15, 28] of the same molecule?
Answer: 0

Question: What about the “Blackgrass plant response rating” value [16, 17] of the same molecule?
Answer: 2

Question: What about the “Blackgrass plant response rating” value [16, 18] of the same molecule?
Answer: 2

Question: What about the “Plant response rating, Blackgrass” value [16, 19] of the same molecule?
Answer: 0

Question: What about the “Plant response rating, Blackgrass” value [16, 20] of the same molecule?
Answer: 0

Question: What about the “Blackgrass plant response rating” value [16, 21] of the same molecule?
Answer: 2

Question: What about the “Blackgrass plant response rating” value [16, 22] of the same molecule?
Answer: 3

Question: What about the “Blackgrass plant response rating” value [16, 23] of the same molecule?
Answer: 0

Question: And the “Blackgrass plant response rating” value [16, 24]?
Answer: 0
